The source of these data is paper PMC9937529, “Mechanism of activation and biased signaling in complement receptor C5aR1” (Cell Research, 2023).

Square brackets hold non-standard residues; d marks the D form. Peptide text beside a SMILES is read from it. Nva = CCC[C@H](N)C(=O)O

One assay concerns the target T1, C5aR1 wild type (Homo sapiens, UniProt P21730).
T1 construct: expressed in transfected cells; host or cells: HEK293
T1 sequence (P21730 1-350): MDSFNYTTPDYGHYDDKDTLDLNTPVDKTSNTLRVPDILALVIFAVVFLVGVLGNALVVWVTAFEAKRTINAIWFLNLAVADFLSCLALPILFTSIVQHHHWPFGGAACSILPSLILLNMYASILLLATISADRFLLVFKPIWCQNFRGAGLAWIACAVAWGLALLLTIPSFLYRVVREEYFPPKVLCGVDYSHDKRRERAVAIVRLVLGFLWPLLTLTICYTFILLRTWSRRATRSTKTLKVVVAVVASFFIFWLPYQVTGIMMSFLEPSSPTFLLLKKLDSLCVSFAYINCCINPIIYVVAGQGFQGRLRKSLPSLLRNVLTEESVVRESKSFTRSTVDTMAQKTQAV
The assay can be described thus: BRET-based Gαi1–γ2 dissociation assay (G protein signaling). To be noted: HEK293, Gi protein dissociation assay (Fig. S10a), ligand 10 min, mean±SEM, n=3. The assay is classed as cell-based. The protocol:
The activation of C5aR1 induced by ligands was measured through BRET-based Gαi1 dissociation from Gβ1γ2 as previously described.[60] HEK293 cells were plated in 6-well plates containing 600,000–800,000 cells per well and cultured 24 h at 37 °C in cell incubator. […] After transfection for 24 h, cells were harvested and dispensed into 96-well white plates and allowed to culture overnight. […] Next, prepared ligands were added into cells for 10 min and the second BRET signal was measured. […] Data were analyzed using a simulation dose-response in GraphPad Prism 7.
A general note: Bioluminescence resonance energy transfer reports proximity on the nanometre scale.

The next assay addresses T2, C5aR1-WT (Homo sapiens, UniProt P21730).
T2 construct: expressed in transfected cells; host or cells: HEK293
T2 sequence (P21730 1-350): T1 sequence (P21730 1-350)
The assay can be described thus: BRET assay measuring β-arrestin 2 recruitment. The assay is classed as cell-based. To be noted: C5aR1 wild type, HEK293, BRET, mean±SEM, n=3, Table S5, read-out: EC50, β-arrestin2 recruitment. The protocol: Briefly, HEK293 cells were transiently transfected with C5aR1-Nluc and mVenus-β-arrestin 2 or C5aR2-mVenus and Nluc-β-arrestin 2 constructs using PEI transfection reagent (YEASEN, 40816ES02) according to the manufacturer’s instruction. At 24 h post transfection, the cells were gently detached and seeded (100,000/well) onto 96-well white plates in DMEM containing 5% FBS. On the next day, cells were washed once with Phosphate Buffered Saline (PBS) and incubated in HBSS containing 20 mM HEPES, pH 7.4, with coelenterazine h (5 μM, YEASEN, 40906ES02) for 1 h (37 °C, 5% CO2). […] We carried out the nonlinear regression (curve fit) dose-response function in GraphPad Prism 7 to yield the values of Emax and EC50.

Assay [1] relates to C5aR1. The assay can be described thus: Bias calculation, Gi protein signaling vs β-arrestin 2 recruitment. As to conditions: from curve fit parameters, endogenous agonist C5a as reference; β value > 0 Gi protein-biased, < 0 β-arrestin-biased. The assay is classed as cell-based, human. As for the experimental part:
The measurement of cAMP inhibition and β-arrestin recruitment in our study was performed as described. Besides, the parameters used below were based on the curve fits of the combined datasets described above.

Assay [2] relates to C5aR1. The assay can be described thus: Biased antagonism in competition with C5a (Gi-protein signaling vs β-arrestin 2 recruitment). The assay is classed as cell-based, human. As to conditions: HEK293. As for the experimental part:
To measure cAMP inhibition effects on the forskolin-induced cAMP accumulation of C5aR1, the GloSensor cAMP assay (Promega) was performed as described in the previous study.[59] Briefly, Flag-tagged wild-type human C5aR1 was co-expressed with GloSensor plasmid in HEK293 cells in 6-well culture plates. After at least 24 h, transfected cells were harvested and suspended in assay buffer Hank’s Balanced Salt Solution (HBSS) containing 10 mM HEPES, pH 7.4, with an additional 3% v/v dilution of the D-Luciferin-Potassium Salt (YEASEN, 40902ES01). […] Finally, the luminescence signals were counted on the Synergy H1 microplate reader (BioTek). […]
The C5a-mediated β-arrestin 2 recruitment to C5aR1 and C5aR2, respectively, was measured using BRET-based assay as previously described.[36],[61],[62] […] The baseline BRET light emissions (460–485 nm and 520–545 nm) were monitored by the Synergy H1 microplate reader (BioTek). After the incubation of different diluted concentrations of agonist with or without antagonist for 10 min, the second BRET light emissions were measured and the ligand-induced BRET ratio was calculated by subtracting the acceptor (mVenus, 520–545 nm) over donor (Nluc, 460–485 nm) emission ratio of the vehicle-treated wells from that of the ligand-treated wells. […]

In general, EC50 refers to the midpoint of the concentration-response curve. In the case of `CC(=O)N[C@@H](Cc1ccccc1)C(=O)N[C@@H](CCCCN)C(=O)N1CCC[C@H]1C(=O)N[C@@H](CC(C)C)C(=O)N[C@@H](C)C(=O)N[C@@H](Cc1ccccc1)C(=O)N[C@H](C)C(=O)N[C@@H](CCCNC(=N)N)C(=O)O` [BM213P6-F] (Ac-FKPLAF[dA]R-OH), the EC50 at C5aR1 wild type turned out to be 455 ± 34.9 nM; on C5aR1-WT it was 155000 ± 59000 nM. Turning to `CC(=O)N[C@@H](Cc1ccccc1)C(=O)N[C@@H](CCCCN)C(=O)N1CCC[C@H]1C(=O)N[C@@H](CC(C)C)C(=O)N[C@@H](C)C(=O)N[C@@H](CC(C)C)C(=O)N[C@H](C)C(=O)N[C@@H](CCCNC(=N)N)C(=O)O` [BM213P6-L] (Ac-FKPLAL[dA]R-OH; C-terminus assumed), the “Signaling bias (bias factor, in words)” value with C5aR1 [1] was “increased β-arrestin-biased features compared to BM213”.

`CCC[C@H](NC(=O)[C@H](C)NC(=O)[C@H](CC(C)C)NC(=O)[C@@H]1CCCN1C(=O)[C@H](CCCCN)NC(=O)[C@H](Cc1ccccc1)NC(C)=O)C(=O)N[C@H](C)C(=O)N[C@@H](CCCNC(=N)N)C(=O)O` [BM213P6-Nva] (Ac-FKPLA[Nva][dA]R-OH): the “Signaling bias (bias factor, in words)” value in the assay on C5aR1 [1] is given as “increased β-arrestin-biased features compared to BM213”. `CC(=O)N[C@@H](Cc1ccccc1)C(=O)N[C@@H](CCCCN)C(=O)N1CCC[C@H]1C(=O)N[C@@H](CC(C)C)C(=O)N[C@@H](C)C(=O)N[C@H](C(=O)N[C@H](C)C(=O)N[C@@H](CCCNC(=N)N)C(=O)O)C(C)C` [BM213P6-V] (Ac-FKPLAV[dA]R-OH): the EC50 amounted to 35.5 ± 4.23 nM at C5aR1 wild type and 2590 ± 110 nM at C5aR1-WT. Regarding `Cc1ccc(NC(=O)[C@H]2CCCN(C(=O)c3c(C)cccc3F)[C@H]2c2ccc(NC3CCCC3)cc2)cc1C(F)(F)F` [avacopan], the “Biased antagonism (in words)” value with C5aR1 [2] is “biased inhibition toward β-arrestin recruitment over G protein coupling”. Still for that read-out and setting: to PMX53 belongs “the opposite”.
